Source: patent publication US20120164117A1, “METHODS OF GENERATING HUMAN CARDIAC CELLS AND TISSUES AND USES THEREOF” (TECHNION RESEARCH & DEVELOPMENT FOUNDATION LTD., priority 2001, published 2012)
Like-named read-outs stand apart in the source and are kept apart here.

Tests used:
[1] = test system: human embryonic stem cell line H9.2 embryoid bodies; assay: Cardiomyocyte differentiation efficiency, percentage of contracting embryoid bodies; type: cell-based
Text: Generation of human embryonic stem cell-derived cardiomyocytic cells: Ten different human embryonic stem cell lines including line H9 or its single cell clonal derivative H9.2 (Amit, M. et al., 2000. Dev. Biol. 227: 271) were individually grown on a mitotically inactivated (mitomycin C) mouse embryonic fibroblast feeder cell layer in culture medium, as previously described (Thomson, J. A. et al., 1998. Science 282: 1145). The culture medium consisted of 80% knockout DMEM (no-pyruvate, high-glucose formulation; Life Technologies, Inc., Rockville, Md., USA.) supplemented with 20% FBS (HyClone, Logan, Utah, USA.), 1 mM L-glutamine, 0.1 mM mercaptoethanol, and 1% nonessential amino acid stock (all from GIBCO-BRL). To induce differentiation, embryonic stem cells were dispersed into small clumps (3-20 cells) using collagenase IV (Life Technologies, Inc., 1 mg/ml for 20 minutes). […] The percentage of embryoid bodies displaying contracting areas, as well as the distribution of the timing of onset of spontaneous beating were evaluated. […] In addition, the effect of DMSO, a known stimulant of differentiation into cardiomyocytic lineage was assessed by adding dimethyl sulfoxide (Sigma Chemical Co., St. Louis, Mo., USA.) at a concentration of 0.75% (vol/vol) to the culture medium during the 10 days of growth in suspension. […]

[2] = test system: human embryonic stem cell-derived cardiomyocytic tissue (contracting embryoid bodies); assay: Pharmacological analysis of conduction, multielectrode array activation mapping of embryoid bodies; type: cell-based; design: Global Velocity / Mean CV Vector: unit not given here; conditions: for total activation time: one embryoid body
[3] = test system: hybrid rat ventricular myocyte-human embryonic stem cell-derived cardiomyocyte co-cultures; assay: Electrical coupling in hybrid human ES cell-derived cardiomyocyte / neonatal rat ventricular myocyte co-cultures on microelectrode array; type: cell-based
Method: Performed as described above in Example 2 of the Examples section. Primary monolayer cultures of neonatal rat (Sprague Dawley) ventricular myocytes were prepared as previously described (Fast V G. and Kleber A G., 1993. Circ Res. 73:914). Briefly, following excision, the ventricles were minced and treated with RDB (IIBR, Ness-Ziona, Israel). Dispersed cells were then cultured on gelatin coated (0.1%) microelectrode array plates or on glass cover slips at a density of 1.5×10^6 cells/ml. […] Pacing studies in co-cultures were performed by electrically stimulating the human or rat tissues with one of the electrodes of the multielectrode array. The degree of electrical coupling between the two tissue types was also assessed during long term recordings and during adrenergic stimulation and partial gap junction uncoupling. The cycle-lengths of the electrical activity in the ES cell-derived cardiomyocytes and in the rat tissue were measured and a histogram depicting the ratio between these two cycle-lengths during long-term recordings is shown in FIG. 16i.

[4] = test system: human embryonic stem cell-derived cardiomyocytic cells (contracting embryoid bodies); assay: Chronotropic responses of contracting embryoid bodies, multielectrode array extracellular recordings; type: cell-based; conditions: for spontaneous contraction rate, % of baseline (initial) value: drug at 10^−6 M (1 μM)
Text: Multielectrode array (MEA) extracellular electrophysiology mapping and pharmacological studies: Intact contracting areas within the embryoid bodies were mechanically dissected using a pulled-glass micropipette and plated on gelatin-coated multielectrode arrays (Multi Channel Systems MCS GmbH, Reutlingen, Germany; Igelmund, P. et al., 1999. Pflugers Arch. 437: 669). The microelectrode array consists of 60 titanium nitride electrodes with gold contacts 30 μm in diameter with an interelectrode distance of 100-200 μm. The contracting areas were plated on top of the microelectrode arrays and cells were grown to confluence over the electrodes. […] Extracellular signals were recorded simultaneously from all 60 electrodes at 25 kHz and band-pass filtered from 1 to 3000 Hz. Recordings were performed in culture medium at 37° C. A pH of 7.4 was maintained using perfusion with an atmosphere containing 5% CO2 and 95% air. Chronotropic responses were assessed by extracellular recordings for 10 minutes prior to and following […], 1 μM carbamylcholine, 10 μM 3-isobutyl-1-methylxanthine (IBMX), or 1 μM forskolin (all from Sigma). Statistical analysis: Data are expressed as mean ±standard deviation. In order to assess possible chronotropic effects, the average spontaneous beating rate was compared prior to and following drug application using two-tailed paired Student's t test.

[5] = test system: swine model of complete atrioventricular block; assay: Swine complete atrioventricular block model transplanted with human ES cell-derived cardiomyocytic cells, rate of new ventricular rhythm; type: in vivo; conditions: following isoproterenol (20 μM); rate before 68±4 beats/minute
[6] = extracellular potassium 10 mM, n=7
[7] = extracellular potassium 15 mM, n=7
[8] = extracellular potassium 20 mM, n=7

C[S+](C)[O-] [DMSO, dimethyl sulfoxide]
increase of the percentage of embryoid bodies with cells displaying cardiac lineage differentiation ([1]; 0.75 percent (v/v) dimethyl sulfoxide): about 20%
percentage of embryoid bodies demonstrating contracting areas ([1]; DMSO 0.75% (vol/vol) during suspension, 8.1% without): 10.1%

COc1ccc([C@@H]2Sc3ccccc3N(CCN(C)C)C(=O)[C@@H]2OC(C)=O)cc1.Cl [Diltiazem, diltiazem hydrochloride]
Global Velocity [2]: 2.8 ± 2.0
Maximal − dv/dt [2]: 2.5 ± 4.2 mV/sec
Mean CV Vector [2]: 5.7 ± 4.2
changes in the conduction parameters studied (global velocity, local velocity vector, −dV/dtmax) [2]: did not result in significant changes

CCCCCCCO [Heptanol, 1-Heptanol]
total activation time ([2]; 1-heptanol 0.3 mM, baseline 15 milliseconds): 32 milliseconds
effect of higher doses on beating ([2]; 1-heptanol 0.6 and 1 mM, n=8): complete cessation of beating
Global Velocity ([2]; heptanol 0.3 mM, n=7): 1.7 ± 0.6
Maximal − dv/dt ([2]; heptanol 0.3 mM, n=7): 2.0 ± 2.3 mV/sec
Mean CV Vector ([2]; heptanol 0.3 mM, n=7): 3.0 ± 5.7
Global Velocity ([2]; heptanol 0.6 mM): 1.2 ± 0.9
Maximal − dv/dt ([2]; heptanol 0.6 mM): 2.1 ± 3.0 mV/sec
Mean CV Vector ([2]; heptanol 0.6 mM): 3.0 ± 3.8
Global Velocity ([2]; heptanol 1 mM): No conduction
Maximal − dv/dt ([2]; heptanol 1 mM): No conduction
Mean CV Vector ([2]; heptanol 1 mM): No conduction
co-cultures in which tight coupling was not altered ([3]; 1-Heptanol 0.5 mM): 5 of the 8
co-cultures with occasional episodes of 2:1 conduction block ([3]; 1-Heptanol 0.5 mM, 8 co-cultures studied): 3

CC(C)Cn1c(=O)n(C)c(=O)c2[nH]cnc21 [IBMX, 3-isobutyl-1-methylxanthine]
spontaneous contraction rate, % of initial value ([4]; 10 μM IBMX, n=6, mean ± SD): 152±77%

CC(C)NCC(O)c1ccc(O)c(O)c1 (centres unmarked) [Isoproterenol, isoproterenol]
chronotropic response of contracting embryoid bodies ([4]; 10 μM isoproterenol): positive chronotropic responses
spontaneous contraction rate, % of baseline (initial) value ([4]; mean ± SD): 146±43%
electrical coupling between the two cell types ([3]; isoproterenol 10 μM): not hindered
spontaneous beating rate ([3]; isoproterenol 10 μM, base line 1.6±0.6 Hz, p<0.05): 1.9±0.8 Hz
heart rate of the new ventricular rhythm [5]: 105±10 beats/minute

[K+] [Potassium]
Global Velocity [2, 6]: 1.6 ± 0.6
Maximal − dv/dt [2, 6]: 2.7 ± 5.5 mV/sec
Mean CV Vector [2, 6]: 3.5 ± 4.2
total activation time ([2]; extracellular potassium 10 mM, baseline 25 milliseconds): 40 milliseconds
Global Velocity [2, 7]: 1.0 ± 0.3
Maximal − dv/dt [2, 7]: 1.1 ± 1.4 mV/sec
Mean CV Vector [2, 7]: 2.0 ± 2.3
total activation time ([2]; extracellular potassium 15 mM, baseline 25 milliseconds): 70 milliseconds
Global Velocity [2, 8]: 1.0 ± 0.4
Maximal − dv/dt [2, 8]: 1.1 ± 1.2 mV/sec
Mean CV Vector [2, 8]: 1.5 ± 1
total activation time ([2]; extracellular potassium 20 mM, baseline 25 milliseconds): 120 milliseconds

NC1=N[C@H](O)[C@H]2[C@H]3O[C@]4(O)O[C@@H]([C@@H](O)[C@@]2(N1)[C@@H]4O)[C@]3(O)CO [TTX, tetrodotoxin]
Global Velocity [2]: 1.8 ± 0.9
Maximal − dv/dt [2]: 1.9 ± 1.9 mV/sec
Mean CV Vector [2]: 3.2 ± 3
total microelectrode array activation time [2]: 35 milliseconds

CN1[C@@H]2CC[C@H]1C[C@@H](OC(=O)C(CO)c1ccccc1)C2 (some centres unmarked) [atropine]
effect on carbamylcholine-induced decrease of spontaneous contraction rate [4]: reversed

C[N+](C)(C)CCOC(N)=O.[Cl-] [carbamylcholine]
spontaneous contraction rate, % of baseline (initial) value ([4]; mean ± SD): 78±20%

C=C[C@@]1(C)CC(=O)[C@]2(O)[C@@]3(C)[C@@H](O)CCC(C)(C)[C@@H]3[C@H](O)[C@H](OC(C)=O)[C@@]2(C)O1 [forskolin]
spontaneous contraction rate, % of baseline (initial) value ([4]; mean ± SD): 182±48%
